How the values were obtained:
trypsin [1] = experiment: standard trypsin inhibition assay (microtest with chromogenic substrate S2444); type: biochemical; settings: fixed amount of trypsin, 20 min at 37° C.
Experimental: The activity of the four AAT proteins purified by the method of the invention was compared to that of a standard AAT preparation derived from serum in a standard trypsin inhibition assay. The assay measures the inhibitory capacity of α1 -antitrypsin toward trypsin. It consists of a microtest using the chromogenic substrate S2444 (L-pyroglutamylglycyl-L-arginine, p-nitroanilide hydrochloride, Kabi Diagnostica, Stockholm, Sweden). The polystyrene microtest plates were incubated for 1 hr with 1% bovine serum albumin and washed extensively with distilled water. α1 -antitrypsin at various concentrations was incubated with a fixed amount of trypsin for 20 min at 37° C. in a 200- 1 final reaction volume of 0.1 M Tris-HCl pH 8.2/0.15 M NaCl/0.01 M EDTA/0.5% polyethylene glycol, Mr 6000). Samples were cooled slowly at room temperature and then exposed to the chromogenic substrate (20 μl of aqueous solution of 0.003 M S2444). After 5 min at room temperature, the reaction was stopped with 50 μl of 50% acetic acid.
Absorbance was read at 405 nm in a micro-ELISA automatic reader (Dynatech AM120). Calibration curves were determined for both trypsin and α1 -antitrypsin. Samples to be assayed were diluted serially in reaction buffer.

trypsin [2] = experiment: as above; type: biochemical; settings: fixed amount of trypsin, 20 min at 37° C.; remark: listed apart in the source

Row | Substance | % inhibition of trypsin activity (trypsin [1]; AAT concentration 0.25 ug/ml) [%] | % inhibition of trypsin activity (trypsin [1]; AAT concentration 1 ug/ml) [%] | % inhibition of trypsin activity (trypsin [1]; AAT concentration 2 ug/ml) [%] | Optical density (A410) (trypsin [2]; AAT concentration 0.25 ug/ml) | Optical density (A410) (trypsin [2]; AAT concentration 1 ug/ml) | Optical density (A410) (trypsin [2]; AAT concentration 2 ug/ml) | % inhibition of trypsin activity (trypsin [1]; AAT concentration 0.50 ug/ml) [%] | % inhibition of trypsin activity (trypsin [1]; AAT concentration 1.50 ug/ml) [%] | Optical density (A410) (trypsin [2]; AAT concentration 0.50 ug/ml) | Optical density (A410) (trypsin [2]; AAT concentration 1.50 ug/ml) | % inhibition of trypsin activity (trypsin [1]; AAT concentration 2.50 ug/ml) [%] | % inhibition of trypsin activity (trypsin [1]; AAT concentration 3.50 ug/ml) [%] | % inhibition of trypsin activity (trypsin [1]; AAT concentration 4.50 ug/ml) [%] | Optical density (A410) (trypsin [2]; AAT concentration 2.50 ug/ml) | Optical density (A410) (trypsin [2]; AAT concentration 3.50 ug/ml) | Optical density (A410) (trypsin [2]; AAT concentration 4.50 ug/ml)
1 | 4: AAT from human plasma, purified by the method of the invention [Sample 4] | 17 | 46 | 93 | 0.74 | 0.48 | 0.06 |  |  |  |  |  |  |  |  |  | 
2 | 3: mature AAT (having N-met in place of the N-glu) expressed in yeast [Sample 3] | 7 |  |  | 0.95 |  |  | 17 | 47 | 0.84 | 0.54 |  |  |  |  |  | 
3 | standard: standard AAT preparation derived from serum |  | 33 | 66 |  | .63 | .32 | 11 |  | .78 |  | 74 | 82 | 90 | .24 | .17 | .1
